Measured values from US4179565A, “2,5-Dimethyl-benzo[b]-thieno[2,3-f]morphan and precursors thereof” (priority 1977, dated 1979).

What was measured:
[1] = Acute toxicity (LD50, Litchfield-Wilcoxon test); conditions: mouse, in vivo, ip; intraperitoneal; deaths counted 48 hours after treatment; fasted mice
Method: Acute toxicity studies were performed on I.C.R. Swiss albino mice of both sexes weighing 30±2 g, kept fasting for 24 hours prior to the experiment. The room temperature and relative humidity were kept constant. The products were administered intraperitoneally, counting the number of deaths 48 hours after the treatment. The calculation of lethal dose 50 (LD50) was made by the Litchfield-Wilcoxon test.

I.C.R. Swiss albino mice [2] = assay: Thermal analgesia, hot plate technique at 55° C.; format: in vivo; conditions: 50mg/kg, intraperitoneal; for thermal analgesic activity (in words): compared with dextropropoxyphene / control; for Jumping time, mean ± S.E.M.: 30 minutes
Method: The thermal analgesic effect was studied on I.C.R. Swiss albino mice. The hot plate technique was used at 55° C. Batches of 10 mice were made.
The products under study were administered intraperitoneally and after 30 minutes the mice were placed on the hot plate, counting the number of seconds they took to jump. Batches of control animals which are only injected with distilled water are used.

I.C.R. Swiss albino mice [3] = assay: Chemical analgesia, acetic acid writhing technique; format: in vivo; conditions: 25mg/kg, intraperitoneal; for analgesic activity, acetic acid writhing (in words): compared with dextropropoxyphene; for No. of writhes, mean ± S.E.M.: 20 minutes after acetic acid; for Significance of differences vs Dextropropoxyphene: No. of writhes
Method: The analgesic effect was studied on I.C.R. Swiss albino mice with the acetic acid writhing technique. Batches of 10 mice were made.
The products under study were administered intraperitoneally and after 30 minutes 0.25 ml of 1% acetic acid are injected intraperitoneally. A batch of control animals which only receive acetic acid is used. The number of writhes in each mouse is counted 20 minutes after administration of the acetic acid.

[4] = Table III, Control 48.8 ± 5.033
[5] = Table VI, Control 109.9 ± 6.362
[6] = Table VII, Control 109.9 ± 6.362

SMILES	LD50 at 48 h [1]	thermal analgesic activity (in words) (I.C.R. Swiss albino mice [2])	Jumping time, mean ± S.E.M. (I.C.R. Swiss albino mice [2]; Table II, Control 64 ± 7.919)	Significance of differences vs Dextropropoxyphene (I.C.R. Swiss albino mice [2]; Table II, jumping time)	analgesic activity, acetic acid writhing (in words) (I.C.R. Swiss albino mice [3])	No. of writhes, mean ± S.E.M. (I.C.R. Swiss albino mice [3]; Table V, Control 101.4 ± 8.973)	Jumping time, mean ± S.E.M. (I.C.R. Swiss albino mice [2]; [4])	Jumping time, mean ± S.E.M. (I.C.R. Swiss albino mice [2]; Table IV, Control 48.8 ± 5.033)	No. of writhes, mean ± S.E.M. (I.C.R. Swiss albino mice [3]; [5])	No. of writhes, mean ± S.E.M. (I.C.R. Swiss albino mice [3]; [6])	Significance of differences vs Dextropropoxyphene (I.C.R. Swiss albino mice [3]; Table VI)	Significance of differences vs Dextropropoxyphene (I.C.R. Swiss albino mice [3]; Table VII)
CN1CCC2(C)CC1Cc1c2sc2ccccc12 (racemic) [Product I, 2,5-dimethyl-benzo[b]thieno[2,3-f]morphan]	35.2 mg/kg	analgesic activity which is not significantly different from that of dextropropoxyphene	168.67 ± 11.334 s	N.S.	greater analgesic activity then dextropropoxyphene	3.1 ± 1.234						
CCC(=O)O[C@](Cc1ccccc1)(c1ccccc1)[C@H](C)CN(C)C [Dextropropoxyphene, dextropropoxyphene, reference compound]			164 ± 7.319 s			21.5 ± 5.929	91.3 ± 7.894 s	91.3 ± 7.894 s	27.8 ± 8.365	27.8 ± 8.365		
CC1=CCN(C)C(Cc2csc3ccccc23)C1 (stereo not drawn) [Product II, 2-(3-benzo[b]thienylmethyl)-1,4-dimethyl-1,2,3,6-tetrahydropyridine]	916 mg/kg	lacking thermal analgesic activity			not significantly different from that of dextropropoxyphene		63 ± 8.368 s		41.2 ± 6.024		N.S.	
CC1=CC(Cc2csc3ccccc23)N(C)CC1 (stereo not drawn) [Product III, 2-(3-benzo[b]thienylmethyl)-1,4-dimethyl-1,2,5,6-tetrahydropyridine]	275 mg/kg	lacking thermal analgesic activity			not significantly different from that of dextropropoxyphene			48.9 ± 5.292 s		22.5 ± 6.263		N.S.
